Several values for one entry are separate records, joined by “and”; a condition that tells them apart may be missing. Equal entries are not always repeated. Where two headings read alike, the source gives them in different places.
Assays:
[1] = system: hormone refractory prostate cancer; settings: daily oral dose of 0.5-1.5 mcg, fourteen patients; cited from earlier work
ovarian cancer = settings: continuous dose; cited from earlier work
[2] = system: LNCaP human prostate cancer cells; settings: LNCaP cells in vitro, Skowronski et al., cited from earlier work
[3] = relative to calcitriol = 1; cited from earlier work
[4] = system: breast carcinoma metastatic to the skeleton; assay: Case history: treatment of breast cancer with weekly pulse calcitriol; format: in vivo, human; settings: 11 mcg po on day 1, 8, 15, 22; for serum tumor marker CA15-3: 445 pre-treatment
Excerpt: In this example, a person with breast carcinoma metastatic to numerous sites in the skeleton received a dose of 11 mcg of calcitriol (Rocaltrol, Roche) administered as […] (0.5 mcg each tablet) divided into four nearly equal doses given in hour one, two, three and four. The patient received this same therapy on day 1, 8, 15 and 22, and then was observed on study until day 56, and tolerated the treatment well. […] Objective benefits included a progressive decrease in the serum tumor marker CA15-3 from 445 (pre-treatment) to 365 (day 27), 365 (day 48) and 320 (day 70). […] No new lesions or pathologic fractures identified were identified by day 64.

[5] = Trial of weekly pulse oral calcitriol: serum calcium, serum phosphate, 24 hour urinary calcium; format: in vivo, human; settings: for Mean serum phosphate: 3.43 (SD 0.56) prior to treatment; for Mean serum calcium: 9.55 (SD 0.57) prior to treatment
Procedure: (§1) Patients were asked to maintain a reduced calcium diet for the four treatment weeks, with a goal of less than 500 mg per day, as described in Example 1. Calcitriol (Rocaltrol®, Roche Pharmaceuticals) was given orally once a week for four weeks. Each weekly dose was given in four divided doses given hourly over four hours. The starting dose was 0.06 μg/kg.
(§2) Complete blood count, serum creatinine, total serum bilirubin, ALT, alkaline phosphatase were monitored weekly. Serum calcium and phosphate were checked on the treatment day (day 1), and on days 2 and 3. Twenty-four hour urinary calcium excretion was measured on day 2. The 1,25-dihydroxyvitaunin D levels were measured by ^125I radioimmunoassay (Incstar, Stillwater, Minn.) and by a radioreceptor assay using calf thymus 1,25-dihydroxyvitamin D receptor (Endocrine Sciences, Calabasas Hills, Calif.). Peak levels were measured two hours after all the pills had been ingested. Trough levels were measured approximately 48 hours later.

myelodysplastic syndrome = settings: 2 mcg daily for 8 weeks or longer, cited from earlier work
[6] = system: malignancy refractory to standard therapy; assay: Trial of weekly pulse oral calcitriol: tumor response (WHO guidelines, tumor markers); format: in vivo, human
Procedure: (§3) Eligibility criteria included histologically confirmed malignancy refractory to standard therapy; age ≧18 years; expected survival of >2 months; ECOG performance status ≦2; hematocrit ≧30; serum creatinine ≦1.2 mg/dL; serum calcium ≦10.5 mg/dL; serum phosphate <4.2 mg/dL; ALT ≦60 IUIL; total serum bilirubin <2 mg/dL. Exclusion criteria included pregnancy, history of hypercalcemia, kidney stones, heart failure or significant heart disease including myocardial infarction in the last 3 months, known cardiac ejection fraction less than 30%, current digoxin therapy, thiazide diuretic therapy within 7 days, bisphosphonate treatment within 4 weeks, systemic steroid therapy within 2 weeks, and unwillingness or inability to stop all magnesium containing antacids, bile resin binding drugs, or calcium supplements for the duration of the study.
as §1
After completing the four week treatment period, patients were monitored for four additional weeks. Serum calcium was checked in weeks 5 and 7 and tumor measurements were obtained in week 7. All toxicities were graded according to NCI Common Toxicity Criteria. Response was assessed according to WHO guidelines.

[7] = Trial of weekly pulse oral calcitriol: toxicities graded by NCI Common Toxicity Criteria; format: in vivo, human
Procedure: as §3, §1, §2
After completing the four week treatment period, patients were monitored for four additional weeks. Serum calcium was checked in weeks 5 and 7 and tumor measurements were obtained in week 7. […] Response was assessed according to WHO guidelines. […]

[8] = Trial of weekly pulse oral calcitriol: plasma/serum 1,25-dihydroxyvitamin D levels (radioimmunoassay, radioreceptor assay); format: in vivo, human; set-up: Mean 48 hour 1,25-dihydroxyvitamin D level: unit not given here; settings: for Mean peak 1,25-dihydroxyvitamin D level: peak two hours after all pills; for Mean 48 hour 1,25-dihydroxyvitamin D level: trough approximately 48 hours later
Procedure: In this example a person with metastatic malignant melanoma of the right jaw received a dose of 37 mcg of calcitriol (Rocaltrol, Roche) administered as 74 tablets (0.5 mcg each tablet) divided into four nearly equal doses given in hour one, two, three and four. The patient received this same therapy on day 1, 8, 15 and 22, and observed until at least day 56. The level of calcitriol in a plasma sample obtained two hours after the last dose of calcitriol (on week one) was determined using a commercial assay at Endocrine Sciences, Inc. The level was 1826 pg/ml, compared to the range for calcitriol levels in normal controls being 21 to 65 pg/ml.
as §1, §2

[9] = cited from earlier work
[10] = single oral dose of 4 mcg, healthy volunteers, Mason et al.

C=C1/C(=C\C=C2/CCC[C@]3(C)[C@@H]([C@H](C)CCCC(C)(C)O)CC[C@@H]23)C[C@@H](O)C[C@@H]1O [calcitriol, 1α,25-dihydroxycholecalciferol]
patients who experienced hypercalcemia [1]: Thirteen | response [1]: no significant response was demonstrated | hypercalcemia (ovarian cancer): encountered hypercalcemia | concentration giving measurable growth inhibition [2]: 0.1 nM | IC50 ([2]; read-out: concentration giving 50% growth inhibition): 1 nM | calcemic index (CI) [3]: 1 | Radiologic evaluation of areas of known bony involvement [4]: progressive sclerosis of multiple lesions in the pelvis and right hip | Subjective beneficial effects [4]: a reduction in pain and in analgesia required | serum tumor marker CA15-3 ([4]; day 27): 365 | serum tumor marker CA15-3 ([4]; day 48): 365 | serum tumor marker CA15-3 ([4]; day 70): 320 | serum calcium and other chemical and hematological parameters, melanoma patient ([5]; 37 mcg po on day 1, 8, 15, 22): remained normal | Mean serum phosphate ([5]; 24 hours after dose, normal range 2.2-4.2): 3.98 (SD 0.57) mg/dL | Mean serum calcium ([5]; 24 hours after dose, normal range 8.5-10.5): 9.76 (SD 0.63) mg/dL | Mean serum phosphate ([5]; 48 hours after dose, p<0.0001): 3.86 (SD 0.53) mg/dL | Mean serum calcium ([5]; 48 hours after dose, p=0.0002): 9.88 (SD 0.68) mg/dL | time for calcium levels above the normal range to return to normal ([5]; no intervention): ≤ 2 days | 24 hour urinary calcium excretion, range ([5]; on treatment, day 2 of each treatment week, 44-292 prior to treatment): 59 to 594 mg | Mean 24 hour urinary calcium excretion ([5]; on treatment, day 2 of each treatment week, 130 (SD 62) prior to treatment, normal range 100-300): 263 (SD 125) mg | patients who experienced symptomatic hypercalcemia (myelodysplastic syndrome; 18 patients): 4 | patients with minor and transient improvements in the peripheral blood counts (myelodysplastic syndrome): Eight of 18 | decline in serum AFP level ([6]; hepatocellular carcinoma patient, two cycles (0.80 and 1.60 μg/kg)): 70% | patients with measurable disease with evidence of progressive disease ([6]; of eight patients): three | patients without measurable disease with tumor marker or clinical evidence of progressive disease ([6]; of seven patients): three | PSA course in a prostate cancer patient ([6]; two cycles of therapy, rapidly rising PSA prior to enrollment): stable PSA for the entire 16 weeks | patients without measurable disease with no evidence of progression ([6]; weekly pulse calcitriol): Four of seven | patients with measurable disease who had stable disease ([6]; weekly pulse calcitriol, tumor measurements week 7): Five of eight | deaths in the trial ([7]; 15 patients, 20 cycles): No deaths occurred | intermittent dose tolerated without hypercalcemia ([7]; given intermittently): ≤ 0.48 µg/kg | dose-limiting hypercalcemic toxicity ([7]; in vivo): No patient developed dose-limiting hypercalcemic toxicity | Serum 1,25-dihydroxyvitamin D trough levels ([8]; 48 hours, normal range 0.05-0.16 nM): returned to normal or near normal levels by 48 hours | Mean peak 1,25-dihydroxyvitamin D level ([8]; dose level 0.06 μg/kg po over four hours, 1 patient): 0.71 nM | Mean 48 hour 1,25-dihydroxyvitamin D level ([8]; dose level 0.06 μg/kg po): 0.27 | Mean peak 1,25-dihydroxyvitamin D level ([8]; dose level 0.24 μg/kg po over four hours, 1 patient): 2.27 nM | Mean 48 hour 1,25-dihydroxyvitamin D level ([8]; dose level 0.24 μg/kg po): 0.21 | Mean peak 1,25-dihydroxyvitamin D level ([8]; dose level 0.48 μg/kg po over four hours, 2 patients): 4.11 nM | Mean 48 hour 1,25-dihydroxyvitamin D level ([8]; dose level 0.48 μg/kg po): 0.23 | Mean peak 1,25-dihydroxyvitamin D level ([8]; dose level 0.80 μg/kg po over four hours, 1 patient): 3.53 nM | Mean peak 1,25-dihydroxyvitamin D level ([8]; dose level 0.96 μg/kg po over four hours, 1 patient): 3.83 nM | Mean peak 1,25-dihydroxyvitamin D level ([8]; dose level 1.60 μg/kg po over four hours, 2 patients): 3.65 nM | Mean peak 1,25-dihydroxyvitamin D level ([8]; dose level 1.92 μg/kg po over four hours, 1 patient): 3.34 nM | Mean peak 1,25-dihydroxyvitamin D level ([8]; dose level 2.00 μg/kg po over four hours, 6 patients): 4.07 nM | Mean 48 hour 1,25-dihydroxyvitamin D level ([8]; dose level 2.00 μg/kg po): 0.26 | Mean peak 1,25-dihydroxyvitamin D level ([8]; dose level 2.80 μg/kg po over four hours, 2 patients): 2.96 nM | effect of dose escalation beyond 0.48 μg/kg on peak calcitriol levels ([8]; dose levels up to 2.80 μg/kg po): did not result in further increases in peak calcitriol levels | concentration at 2 h ([8]; male, human, plasma, melanoma patient, 37 mcg po in four hourly doses, sample two hours after the last dose, week one, normal controls 21 to 65 pg/ml, read-out: level of calcitriol in plasma): 1.83 ng/mL | Peak blood levels of calcitriol above the upper limit of normal ([8]; pulsed weekly administration): about 25 fold | clearance of calcitriol from the blood ([8]; weekly pulse schedule): essentially completely cleared from the blood by day 3 | peak blood calcitriol levels in patients ([8]; weekly pulse schedule, highest level seen): up to 8.9 nM | peak 1,25-dihydroxyvitamin D serum concentrations ([9]; 2 mcg single oral dose, healthy volunteers, Papapoulus et al.): 0.235 nM and 0.351 nM | patients with a serum calcium above 10.8 ([9]; 4 mcg per day for 4 days, postmenopausal women, no clinically significant hypercalcemia, Geusens et al.): Four of the 27 | peak of stable serum levels of 1,25-dihydroxyvitamin D ([9]; 32 mcg/day for 3 months, patients with osteopetrosis, no hypercalcemia, Key et al.): 2.32 nM | duration of hypercalcemic effect ([9]; in vivo): 3 to 5 days | serum half life ([9]; in vivo): 3 to 6 h | time after administration at which intestinal absorption of calcium begins to increase ([9]; in vivo): 2 h | time of maximal hypercalcemic effect ([9]; in vivo): 10 h | time at which peak serum concentration is reached ([9]; replacement therapy doses): 2 h | peak 1,25-dihydroxyvitamin D serum concentrations [9, 10]: 0.42 nM | serum calcium [9, 10]: no elevation in serum calcium | serum calcium ([9]; up to 2.7 mcg/day for 7 to 15 days, normal volunteers, Brickman et al.): no significant elevations in serum calcium were observed | stable 1,25-dihydroxyvitamin D serum levels ([9]; up to 3 mcg/day for 6-12 days, normal volunteers, Adams et al.): 0.184 to 0.235 nM | elevation in serum calcium ([9]; up to 3 mcg/day for 6-12 days, patients on a low calcium diet, Adams et al.): None of the patients

Source: patent US6521608B1, “Vitamin D and its analogs in the treatment of tumors and other hyperproliferative disorders” (Oregon Health & Science University, priority 1998, dated 2003)
